{"source": "patent US5336485A", "about": "“Method for protecting animals against tacrine induced cytotoxic injury using sterol compounds” (priority 1993, dated 1994)", "key": {"male Sprague-Dawley rats": {"test_system": "male Sprague-Dawley rats", "experiment": "THA-induced side effects in rats", "conditions": "100 mg/kg ip 20 h prior"}, "rat hepatocytes [1]": {"test_system": "rat hepatocytes", "experiment": "EMS-induced cytotoxicity (LDH leakage/cell death) in rat hepatocyte suspensions", "conditions": "for Protection From Toxic Injury: EMS 3 h; for inhibition at 25 µM: Rattus norvegicus, Hepatocyte"}, "rat hepatocytes [2]": {"test_system": "rat hepatocytes", "experiment": "EMS-induced lipid peroxidation in rat hepatocyte suspensions", "assay_type": "cell-based", "conditions": "50 mM EMS", "method": "At each time-point, rapid separation of viable from non-viable hepatocytes and medium was accomplished by the dibutyl phthalate centrifugation method. Cell viability was monitored hourly by measuring LDH leakage with a Cobas Analyzer and intracellular [K^+ ]with a flame photometer. LDH was routinely measured in the medium while intracellular K^+ was measured in the 10% perchloric acid lysate of viable cells. Lipid peroxidation was determined by measuring TBA reactants in the medium. […] The samples were diluted with 0.3 ml 1% ascorbate in 0.1 M SDS, 0.4 ml ethanol, sonicated and extracted once with 0.8 ml hexane. Next, the hexane extract was evaporated to dryness with N2, the residue dissolved in 2.5% ascorbate in methanol (1 ml) and analyzed (100 μl) by high-performance liquid chromatograph (HPLC). […] The mobile phase, 95% MeOH was run isocratically and the HPLC retention times for delta and alpha-tocopherol were approximately eleven and sixteen minutes, respectively. […] Following the addition of 0.2 ml 4 M HC1, the neutralized KOH-MeOH extracted with 0.8 ml hexane. […] A standard curve for each tocopherol congener was run with every assay. […] Only viable cells were monitored in the laboratory procedures.\nRat hepatocyte suspensions were subjected to 50 mM EMS and the percentage of cell death, the percentage of intracellular K^+ (a metabolic parameter as discussed above), the depletion of ATP and the effect on lipid peroxidation were monitored."}, "[3]": {"experiment": "Tissue distribution of alpha-tocopherol and alpha-tocopherol ester in rats", "assay_type": "in vivo, rat", "method": "100 mg/kg body weight of a tocopherol analog was administered to Sprague-Dawley rats using a peanut oil:ethanol vehicle (3:2). Twenty four hours later the rats were sacrificed and the accumulation of the tocopherol analog in the liver was determined.\nA similar in vivo experiment to that discussed in conjunction with Table 5 was performed to determine if other tissues accumulate alpha-TS. Male Sprague-Dawley rats were given a 100 mg/kg dose of alpha-TS using a variety of chemical forms and vehicles. A variety of techniques were used to administer the alpha-TS. Twenty four hours later the rats were sacrificed and the tissues were tested for alpha-TS accumulation."}, "[4]": {"experiment": "Blood alpha-TS content after oral dosing in humans", "assay_type": "in vivo, human", "conditions": "400 units per day, one month, three males", "description": "In a one month study with three human males aging from 35 to 62 years 400 units of alpha-tocopheryl succinate were taken per day. Subsequent blood samples were taken from each individual and analyzed for alpha-T and alpha-TS content. […] However, in select individuals, as determined possibly by ethnic origin or diet, tissue alpha-TS accumulation can occur with oral dosing. The absence of alpha-TS hydrolysis in the gut of the one individual in the study who had substantial amounts of alpha-TS in plasma may be attributed to the absence of duodenal secretions after oral alpha-TS administration (lack of dietary fats to stimulate duodenal secretions at the time of alpha-TS administration)."}, "rat hepatocytes [5]": {"test_system": "rat hepatocytes", "experiment": "ATP content of rat hepatocyte suspensions", "assay_type": "cell-based"}, "human prostate cells": {"test_system": "human prostate cells", "conditions": "10 μM; cited from earlier work"}, "variety of cell types": {"test_system": "variety of cell types", "conditions": "cited from earlier work"}, "[6]": {"conditions": "(b) ip, peanut oil and ETOH, 1 dose 100 mg/kg, 24 h"}, "[7]": {"conditions": "(e) iv, liposomes, 1 dose 100 mg/kg, 24 h"}, "[8]": {"conditions": "(f) ip, olive oil, 7 daily doses"}}, "note": "Where a name gives a salt, the structure may show the parent alone."}
{"molecule": "CC(C)CCC[C@@H](C)[C@H]1CC[C@H]2[C@@H]3CC=C4C[C@@H](OC(=O)CCC(=O)O)CC[C@]4(C)[C@H]3CC[C@]12C", "note": "[Cholesteryl Succinate tris salt]", "values": [{"measurement": "Survival", "setting": "male Sprague-Dawley rats; THA 30.0 mg/kg (vehicle 100%)", "result": 40, "unit": "%"}, {"measurement": "Salivation", "setting": "male Sprague-Dawley rats; THA 30.0 mg/kg, 0 to 4 scale (vehicle 2.2 ± 0.4)", "result": "4.0 ± 0.0"}, {"measurement": "Tremors", "setting": "male Sprague-Dawley rats; THA 30.0 mg/kg, 0 to 4 scale (vehicle 3.0 ± 0.0)", "result": "4.0 ± 0.0"}]}
{"molecule": "Cc1c(C)c2c(c(C)c1OC(=O)CCC(=O)O)CC[C@@](C)(CCC[C@H](C)CCC[C@H](C)CCCC(C)C)O2", "note": "[alpha-TS, d-alpha-tocopheryl succinate]", "values": [{"measurement": "protection against loss of viability", "setting": "rat hepatocytes [1]; 0.5 μM, EMS", "result": 85, "unit": "%"}, {"measurement": "protection against loss of viability and metabolic performance", "setting": "rat hepatocytes [1]; 2 μM, EMS", "result": 100, "unit": "%"}, {"measurement": "Protection From Toxic Injury", "setting": "rat hepatocytes [1]; 2.0 μM", "result": "Yes"}, {"measurement": "Protection From Toxic Injury", "setting": "rat hepatocytes [1]; 10 μM", "result": "Yes"}, {"measurement": "Protection From Toxic Injury", "setting": "rat hepatocytes [1]; 25 μM", "result": "Yes"}, {"measurement": "Protection From Toxic Injury", "setting": "rat hepatocytes [1]; 250 μM", "result": "Yes"}, {"measurement": "Cell Death", "setting": "rat hepatocytes [1]; 50 mM EMS + 25 μM alpha-TS", "result": "30 ± 7", "unit": "%"}, {"measurement": "Cell Death", "setting": "rat hepatocytes [1]; 50 mM EMS + 25 μM alpha-TS + 100 μM Bis-(p-nitrophenyl) phosphate", "result": "52 ± 3", "unit": "%"}, {"measurement": "Cell Death", "setting": "rat hepatocytes [1]; 50 mM EMS + 25 μM alpha-TS + 100 μM Diethyl p-nitrophenyl phosphate", "result": "58 ± 8", "unit": "%"}, {"measurement": "Cell Death", "setting": "rat hepatocytes [1]; 50 mM EMS, 5 Hrs, alpha-TS 25, methyl ester 50, cholesteryl succinate 100, monomethyl/dimethyl succinate 250 μM", "result": "27 ± 1", "unit": "%"}, {"measurement": "Protection From Toxic Injury", "setting": "rat hepatocytes [1]; .5 μM", "result": "Yes"}, {"measurement": "% Cell Death", "setting": "rat hepatocytes [1]; EMS 50 mM, 25 μM alpha-TS (no alpha-TS 68)", "result": 25, "unit": "%"}, {"measurement": "inhibition at 25 µM", "setting": "rat hepatocytes [1]; 5 h, read-out: Percent Cytoprotection, 25 μM, 50 mM EMS, 5 h", "result": "92 ± 3", "unit": "%"}, {"measurement": "inhibition at 25 µM", "setting": "rat hepatocytes [1]; read-out: % Protection, 25 μM, 50 mM EMS", "result": 100, "unit": "%"}, {"measurement": "protection from lethal effects of EMS", "setting": "rat hepatocytes [1]; rat hepatocytes, 25 μM, 50 mM EMS", "result": "protected both rat and canine hepatocytes from the lethal effects"}, {"measurement": "Lipid Peroxidation", "setting": "rat hepatocytes [2]; 5 Hrs, concentrations as cell death (Table 15)", "result": 0.9, "unit": "nmolMDA/10^6 cells"}, {"measurement": "inhibition at 25 µM", "setting": "rat hepatocytes [2]; Rattus norvegicus, Hepatocyte, 25 μM", "result": 100, "unit": "%"}, {"measurement": "Liver Concentration Ester", "setting": "[3]; 100 mg/kg ip, 24 h", "result": "119 ± 16", "unit": "nmol/g"}, {"measurement": "alpha-TS, Blood", "setting": "[3]; [6]", "result": "7 nmoles/gm of Tissue"}, {"measurement": "alpha-TS, Heart", "setting": "[3]; [6]", "result": "47 nmoles/gm of Tissue"}, {"measurement": "alpha-TS, Kidney", "setting": "[3]; [6]", "result": "31 nmoles/gm of Tissue"}, {"measurement": "alpha-TS, Liver", "setting": "[3]; [6]", "result": "119 nmoles/gm of Tissue"}, {"measurement": "alpha-TS, Lung", "setting": "[3]; [6]", "result": "90 nmoles/gm of Tissue"}, {"measurement": "alpha-TS, Plasma", "setting": "[3]; [6]", "result": "8 nmoles/gm of Tissue"}, {"measurement": "alpha-TS, Blood", "setting": "[3]; [7]", "result": "6 nmoles/gm of Tissue"}, {"measurement": "alpha-TS, Heart", "setting": "[3]; [7]", "result": "10 nmoles/gm of Tissue"}, {"measurement": "alpha-TS, Liver", "setting": "[3]; [7]", "result": "322 nmoles/gm of Tissue"}, {"measurement": "alpha-TS, Lung", "setting": "[3]; [7]", "result": "4843 nmoles/gm of Tissue"}, {"measurement": "alpha-TS, Plasma", "setting": "[3]; [7]", "result": "5 nmoles/gm of Tissue"}, {"measurement": "alpha-TS, Blood", "setting": "[3]; [8]", "result": "15 nmoles/gm of Tissue"}, {"measurement": "alpha-TS, Brain", "setting": "[3]; [8]", "result": "6 nmoles/gm of Tissue"}, {"measurement": "alpha-TS, Heart", "setting": "[3]; [8]", "result": "34 nmoles/gm of Tissue"}, {"measurement": "alpha-TS, Kidney", "setting": "[3]; [8]", "result": "44 nmoles/gm of Tissue"}, {"measurement": "alpha-TS, Liver", "setting": "[3]; [8]", "result": "161 nmoles/gm of Tissue"}, {"measurement": "alpha-TS, Lung", "setting": "[3]; [8]", "result": "128 nmoles/gm of Tissue"}, {"measurement": "accumulation of hepatic alpha-TS", "setting": "[3]; oral", "result": "elimination of both the accumulation of hepatic alpha-TS and protection against CCl4 lethality"}, {"measurement": "alpha-TS in plasma and erythrocytes", "setting": "[4]", "result": "Substantial amounts of alpha-TS in plasma and erythrocytes were observed for only one individual"}, {"measurement": "Rate of ATP Depletion", "setting": "rat hepatocytes [5]; 25 μM", "result": "1.0 ± 0.1", "unit": "nmoles/10^6 cell/hr"}, {"measurement": "Cellular ATP", "setting": "rat hepatocytes [5]; 25 μM, 0 Hr", "result": "20.1 ± .5 nmoles/10^6 cells"}, {"measurement": "Cellular ATP", "setting": "rat hepatocytes [5]; 25 μM, 6 Hr", "result": "14.2 ± 0.8", "unit": "nmoles/10^6 cells"}, {"measurement": "Rate of ATP Depletion", "setting": "rat hepatocytes [5]; 250 μM", "result": "0.6 ± 0.3", "unit": "nmoles/10^6 cell/hr"}, {"measurement": "Cellular ATP", "setting": "rat hepatocytes [5]; 250 μM, 0 Hr", "result": "15.2 ± 1.6", "unit": "nmoles/10^6 cells"}, {"measurement": "Cellular ATP", "setting": "rat hepatocytes [5]; 250 μM, 6 Hr", "result": "11.7 ± 2.0", "unit": "nmoles/10^6 cells"}, {"measurement": "% Initial Intracellular [ATP]", "setting": "rat hepatocytes [5]; 50 mM EMS, 5 Hrs, 25 μM (Table 15)", "result": "45 ± 2", "unit": "% Initial"}, {"measurement": "tumor cell growth", "setting": "human prostate cells", "result": "inhibits tumor cell growth"}, {"measurement": "protection against carcinogenic effects of radiation and cancer causing chemicals", "setting": "variety of cell types", "result": "protects a variety of cell types against the carcinogenic effects of radiation and cancer causing chemicals"}]}
